# Measured values from the kinase profiling compilation of Christmann-Franck et al. (2016).
# Columns and labels:
# Test in all cases: KINOMEscan competition binding
# Conditions in all cases: compound 10.0 µM
# ABL2 (human) = ABL2 (human) (UniProt P42684)
# YES1 (human) = YES1 (human) (UniProt P07947)
# CSNK1G2 (human) = CSNK1G2 (human) (UniProt P78368)
# IRAK3 (human) = IRAK3 (human) (UniProt Q9Y616)
# TEC (human) = TEC (human) (UniProt P42680)
# MYLK4 (human) = MYLK4 (human) (UniProt Q86YV6)
# PKN1 (human) = PKN1 (human) (UniProt Q16512)
# STK17B (human) = STK17B (human) (UniProt O94768)
# Sequence of STK17B (human) (O94768 whole entry, looked up): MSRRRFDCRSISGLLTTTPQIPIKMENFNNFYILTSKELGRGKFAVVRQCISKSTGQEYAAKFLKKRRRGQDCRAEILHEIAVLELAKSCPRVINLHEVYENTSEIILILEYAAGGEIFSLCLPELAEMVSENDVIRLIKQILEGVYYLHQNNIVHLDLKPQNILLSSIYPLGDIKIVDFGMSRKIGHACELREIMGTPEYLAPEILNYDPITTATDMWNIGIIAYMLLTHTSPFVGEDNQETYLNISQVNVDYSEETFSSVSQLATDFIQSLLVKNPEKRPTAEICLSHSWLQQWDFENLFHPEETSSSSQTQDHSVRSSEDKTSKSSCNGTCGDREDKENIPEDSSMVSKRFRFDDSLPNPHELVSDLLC
# STK24 (human) = STK24 (human) (UniProt Q9Y6E0)
# PRKCE (human) = PRKCE (human) (UniProt Q02156)
# WEE2 (human) = WEE2 (human) (UniProt P0C1S8)
# CLK3 (human) = CLK3 (human) (UniProt P49761)
# BLK (human) = BLK (human) (UniProt P51451)
# Sequence of BLK (human) (P51451 whole entry, looked up): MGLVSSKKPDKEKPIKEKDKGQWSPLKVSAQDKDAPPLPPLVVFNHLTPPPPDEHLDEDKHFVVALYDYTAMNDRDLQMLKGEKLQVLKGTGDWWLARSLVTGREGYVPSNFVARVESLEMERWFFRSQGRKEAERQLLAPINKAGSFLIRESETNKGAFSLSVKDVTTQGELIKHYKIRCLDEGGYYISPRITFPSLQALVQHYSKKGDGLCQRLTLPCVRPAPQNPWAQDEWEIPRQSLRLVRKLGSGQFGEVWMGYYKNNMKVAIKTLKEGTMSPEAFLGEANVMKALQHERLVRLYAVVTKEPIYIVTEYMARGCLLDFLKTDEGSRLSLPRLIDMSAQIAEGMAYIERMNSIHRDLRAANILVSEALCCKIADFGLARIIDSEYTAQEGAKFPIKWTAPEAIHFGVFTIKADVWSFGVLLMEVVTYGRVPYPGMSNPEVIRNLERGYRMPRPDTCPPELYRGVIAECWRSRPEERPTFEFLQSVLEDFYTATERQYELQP
# GAK (human) = GAK (human) (UniProt O14976)
# SRPK2 (human) = SRPK2 (human) (UniProt P78362)
# CIT (human) = CIT (human) (UniProt O14578)
# NTRK3 (human) = NTRK3 (human) (UniProt Q16288)
# AXL (human) = AXL (human) (UniProt P30530)
# Sequence of AXL (human) (P30530 whole entry, looked up): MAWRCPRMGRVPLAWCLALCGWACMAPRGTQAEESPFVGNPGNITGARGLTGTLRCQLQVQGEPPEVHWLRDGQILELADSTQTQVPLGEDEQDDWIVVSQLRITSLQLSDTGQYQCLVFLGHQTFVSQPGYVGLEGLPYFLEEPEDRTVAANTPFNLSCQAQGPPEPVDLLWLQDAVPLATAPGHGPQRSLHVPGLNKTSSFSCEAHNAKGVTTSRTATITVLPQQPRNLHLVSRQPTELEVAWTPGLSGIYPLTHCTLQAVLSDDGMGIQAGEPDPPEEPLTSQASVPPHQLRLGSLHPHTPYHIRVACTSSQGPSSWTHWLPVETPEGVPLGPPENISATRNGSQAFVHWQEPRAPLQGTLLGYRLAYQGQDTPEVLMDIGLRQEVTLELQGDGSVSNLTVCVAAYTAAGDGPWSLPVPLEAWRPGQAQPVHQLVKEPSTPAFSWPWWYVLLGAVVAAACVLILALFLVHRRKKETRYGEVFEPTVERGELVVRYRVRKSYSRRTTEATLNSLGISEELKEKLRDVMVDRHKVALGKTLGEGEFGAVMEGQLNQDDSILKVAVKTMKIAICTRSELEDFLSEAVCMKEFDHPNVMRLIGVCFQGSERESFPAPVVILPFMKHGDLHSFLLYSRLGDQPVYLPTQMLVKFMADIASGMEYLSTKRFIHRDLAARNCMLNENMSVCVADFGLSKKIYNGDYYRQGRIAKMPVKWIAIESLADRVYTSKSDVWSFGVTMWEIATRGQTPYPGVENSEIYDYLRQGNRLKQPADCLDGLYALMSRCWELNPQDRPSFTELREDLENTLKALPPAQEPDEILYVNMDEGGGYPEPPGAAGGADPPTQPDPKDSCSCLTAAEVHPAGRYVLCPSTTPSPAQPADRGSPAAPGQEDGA
# ERBB2 (human) = ERBB2 (human) (UniProt P04626)
# SRC (human) = SRC (human) (UniProt P12931)
# CDK9 (human) = CDK9 (human) (UniProt P50750)
# HCK (human) = HCK (human) (UniProt P08631)
# MINK1 (human) = MINK1 (human) (UniProt Q8N4C8)
# Sequence of MINK1 (human) (Q8N4C8 whole entry, looked up): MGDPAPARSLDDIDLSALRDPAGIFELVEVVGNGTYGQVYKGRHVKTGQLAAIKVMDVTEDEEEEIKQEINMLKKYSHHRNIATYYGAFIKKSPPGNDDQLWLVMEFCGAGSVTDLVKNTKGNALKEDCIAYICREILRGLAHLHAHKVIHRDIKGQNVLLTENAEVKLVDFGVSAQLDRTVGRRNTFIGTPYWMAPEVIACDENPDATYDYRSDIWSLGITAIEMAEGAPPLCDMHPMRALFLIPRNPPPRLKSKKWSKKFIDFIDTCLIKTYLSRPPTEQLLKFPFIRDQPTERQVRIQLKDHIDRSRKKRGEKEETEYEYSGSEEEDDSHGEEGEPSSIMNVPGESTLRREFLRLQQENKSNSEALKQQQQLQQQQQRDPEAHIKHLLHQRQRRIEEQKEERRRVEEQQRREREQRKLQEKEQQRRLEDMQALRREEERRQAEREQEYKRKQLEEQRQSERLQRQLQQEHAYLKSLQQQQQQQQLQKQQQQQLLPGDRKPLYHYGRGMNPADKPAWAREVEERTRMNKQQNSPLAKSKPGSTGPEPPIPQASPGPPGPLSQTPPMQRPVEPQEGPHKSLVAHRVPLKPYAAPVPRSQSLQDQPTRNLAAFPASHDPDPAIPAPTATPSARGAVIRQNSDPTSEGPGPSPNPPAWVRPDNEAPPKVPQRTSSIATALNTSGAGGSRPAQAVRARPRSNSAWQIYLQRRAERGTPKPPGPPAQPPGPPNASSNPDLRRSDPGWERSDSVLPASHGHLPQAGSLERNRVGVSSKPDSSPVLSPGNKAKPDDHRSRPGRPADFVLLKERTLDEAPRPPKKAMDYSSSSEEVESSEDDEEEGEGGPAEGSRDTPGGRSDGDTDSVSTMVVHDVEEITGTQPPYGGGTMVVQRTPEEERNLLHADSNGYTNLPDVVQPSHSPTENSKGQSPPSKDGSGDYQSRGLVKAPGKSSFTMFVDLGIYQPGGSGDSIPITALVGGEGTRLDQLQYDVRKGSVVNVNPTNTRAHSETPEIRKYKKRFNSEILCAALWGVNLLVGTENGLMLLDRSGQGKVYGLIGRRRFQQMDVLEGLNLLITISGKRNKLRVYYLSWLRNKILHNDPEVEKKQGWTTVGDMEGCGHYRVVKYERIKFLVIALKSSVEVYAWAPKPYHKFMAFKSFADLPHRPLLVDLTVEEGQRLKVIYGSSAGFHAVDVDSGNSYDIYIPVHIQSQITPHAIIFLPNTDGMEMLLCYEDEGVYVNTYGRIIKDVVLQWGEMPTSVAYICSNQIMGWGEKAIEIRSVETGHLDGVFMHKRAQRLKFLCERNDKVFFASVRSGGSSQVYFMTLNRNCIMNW
# PAK7 (human) = PAK7 (human) (UniProt Q9P286)
# RPS6KA3 KD1 (human) = RPS6KA3 KD1 (human) (UniProt P51812)
# BMPR1B (human) = BMPR1B (human) (UniProt O00238)
# PRKCQ (human) = PRKCQ (human) (UniProt Q04759)
# INSRR (human) = INSRR (human) (UniProt P14616)
# PRKD3 (human) = PRKD3 (human) (UniProt O94806)
# MAP2K2 (human) = MAP2K2 (human) (UniProt P36507)
# STK33 (human) = STK33 (human) (UniProt Q9BYT3)
# PRKG2 (human) = PRKG2 (human) (UniProt Q13237)
# Sequence of PRKG2 (human) (Q13237 whole entry, looked up): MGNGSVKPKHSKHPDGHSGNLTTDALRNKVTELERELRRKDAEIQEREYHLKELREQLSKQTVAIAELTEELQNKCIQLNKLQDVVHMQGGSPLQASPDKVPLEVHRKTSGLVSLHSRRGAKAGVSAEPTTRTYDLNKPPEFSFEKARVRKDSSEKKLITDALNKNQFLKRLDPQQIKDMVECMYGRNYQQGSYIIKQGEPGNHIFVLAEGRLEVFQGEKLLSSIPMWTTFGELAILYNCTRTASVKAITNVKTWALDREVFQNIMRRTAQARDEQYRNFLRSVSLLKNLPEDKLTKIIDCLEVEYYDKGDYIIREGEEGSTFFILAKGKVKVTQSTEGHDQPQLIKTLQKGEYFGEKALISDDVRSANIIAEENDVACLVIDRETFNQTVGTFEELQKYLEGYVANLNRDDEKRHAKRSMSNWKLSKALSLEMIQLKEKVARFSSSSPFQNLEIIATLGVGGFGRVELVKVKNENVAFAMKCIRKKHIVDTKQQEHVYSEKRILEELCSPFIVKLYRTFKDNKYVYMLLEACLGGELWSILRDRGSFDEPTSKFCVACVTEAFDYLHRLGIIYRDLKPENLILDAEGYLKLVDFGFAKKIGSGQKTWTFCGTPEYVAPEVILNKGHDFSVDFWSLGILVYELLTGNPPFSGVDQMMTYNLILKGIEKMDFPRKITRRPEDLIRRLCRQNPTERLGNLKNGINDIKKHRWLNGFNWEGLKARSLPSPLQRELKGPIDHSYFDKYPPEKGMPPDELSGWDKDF
# SRMS (human) = SRMS (human) (UniProt Q9H3Y6)
# EPHA3 (human) = EPHA3 (human) (UniProt P29320)
# BRSK2 (human) = BRSK2 (human) (UniProt Q8IWQ3)
# Sequence of BRSK2 (human) (Q8IWQ3 whole entry, looked up): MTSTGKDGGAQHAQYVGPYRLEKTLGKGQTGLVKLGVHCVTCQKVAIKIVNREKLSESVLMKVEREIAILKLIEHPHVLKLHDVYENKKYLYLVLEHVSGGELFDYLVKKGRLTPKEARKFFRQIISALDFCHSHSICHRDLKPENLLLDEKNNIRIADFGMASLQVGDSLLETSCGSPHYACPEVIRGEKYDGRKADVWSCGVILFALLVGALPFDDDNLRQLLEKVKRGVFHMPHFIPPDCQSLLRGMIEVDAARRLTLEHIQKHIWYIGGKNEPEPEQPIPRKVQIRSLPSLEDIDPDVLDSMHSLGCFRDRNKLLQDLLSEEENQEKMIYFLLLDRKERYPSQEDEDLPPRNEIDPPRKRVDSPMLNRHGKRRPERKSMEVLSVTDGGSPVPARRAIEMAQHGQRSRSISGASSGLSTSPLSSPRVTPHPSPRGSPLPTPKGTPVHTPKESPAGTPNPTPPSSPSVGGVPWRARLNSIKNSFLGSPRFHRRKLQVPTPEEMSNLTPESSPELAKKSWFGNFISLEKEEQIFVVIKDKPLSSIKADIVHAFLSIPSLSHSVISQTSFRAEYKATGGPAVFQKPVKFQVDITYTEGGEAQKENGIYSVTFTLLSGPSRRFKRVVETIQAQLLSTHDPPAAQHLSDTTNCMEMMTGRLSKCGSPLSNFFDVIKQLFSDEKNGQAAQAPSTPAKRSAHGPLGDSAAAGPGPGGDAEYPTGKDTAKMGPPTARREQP
# MAP4K4 (human) = MAP4K4 (human) (UniProt O95819)
# PRKX (human) = PRKX (human) (UniProt P51817)
# Sequence of PRKX (human) (P51817 whole entry, looked up): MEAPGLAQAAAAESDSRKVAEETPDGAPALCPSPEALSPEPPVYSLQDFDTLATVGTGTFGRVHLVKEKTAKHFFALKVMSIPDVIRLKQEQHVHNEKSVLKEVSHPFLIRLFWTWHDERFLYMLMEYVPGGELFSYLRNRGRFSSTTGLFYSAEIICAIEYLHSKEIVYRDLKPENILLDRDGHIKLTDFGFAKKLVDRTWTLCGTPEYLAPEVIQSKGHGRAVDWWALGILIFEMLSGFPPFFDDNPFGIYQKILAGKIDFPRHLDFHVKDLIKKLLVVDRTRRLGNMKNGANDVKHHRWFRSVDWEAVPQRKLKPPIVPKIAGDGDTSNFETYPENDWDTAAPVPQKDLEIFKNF
# MAP4K5 (human) = MAP4K5 (human) (UniProt Q9Y4K4)
# [1] = test system: ABL1 (human), P00519 [M351T]
# MAPK9 (human) = MAPK9 (human) (UniProt P45984)
Structure (SMILES),"kinase still bound, per cent of control (ABL2 (human)) [%]","kinase still bound, per cent of control (YES1 (human)) [%]","kinase still bound, per cent of control (CSNK1G2 (human)) [%]","kinase still bound, per cent of control (IRAK3 (human)) [%]","kinase still bound, per cent of control (TEC (human)) [%]","kinase still bound, per cent of control (MYLK4 (human)) [%]","kinase still bound, per cent of control (PKN1 (human)) [%]","kinase still bound, per cent of control (STK17B (human)) [%]","kinase still bound, per cent of control (STK24 (human)) [%]","kinase still bound, per cent of control (PRKCE (human)) [%]","kinase still bound, per cent of control (WEE2 (human)) [%]","kinase still bound, per cent of control (CLK3 (human)) [%]","kinase still bound, per cent of control (BLK (human)) [%]","kinase still bound, per cent of control (GAK (human)) [%]","kinase still bound, per cent of control (SRPK2 (human)) [%]","kinase still bound, per cent of control (CIT (human)) [%]","kinase still bound, per cent of control (NTRK3 (human)) [%]","kinase still bound, per cent of control (AXL (human)) [%]","kinase still bound, per cent of control (ERBB2 (human)) [%]","kinase still bound, per cent of control (SRC (human)) [%]",further results
C=CC(=O)Nc1cccc(Nc2nc(N[C@H]3CC[C@H](N(C)C)CC3)nc3c2ncn3C(C)C)c1,94,23,7.9,38,100,88,22,22,43,52,100,9,17,44,92,50,28,40,100,4,"kinase still bound, per cent of control (CDK9 (human)): 100%; kinase still bound, per cent of control (HCK (human)): 27%; kinase still bound, per cent of control (MINK1 (human)): 27%; kinase still bound, per cent of control (PAK7 (human)): 17%; kinase still bound, per cent of control (RPS6KA3 KD1 (human)): 3.6%; kinase still bound, per cent of control (BMPR1B (human)): 31%; kinase still bound, per cent of control (PRKCQ (human)): 3.6%; kinase still bound, per cent of control (INSRR (human)): 64%; kinase still bound, per cent of control (PRKD3 (human)): 80%; kinase still bound, per cent of control (MAP2K2 (human)): 100%; kinase still bound, per cent of control (STK33 (human)): 15%; kinase still bound, per cent of control (PRKG2 (human)): 96%; kinase still bound, per cent of control (SRMS (human)): 88%; kinase still bound, per cent of control (EPHA3 (human)): 54%; kinase still bound, per cent of control (BRSK2 (human)): 100%; kinase still bound, per cent of control (MAP4K4 (human)): 53%; kinase still bound, per cent of control (PRKX (human)): 100%; kinase still bound, per cent of control (MAP4K5 (human)): 60%; kinase still bound, per cent of control [1]: 71%; kinase still bound, per cent of control (MAPK9 (human)): 100%"
N#Cc1c(NC(=O)c2cccc3ccccc23)sc2c1CCCC2,86,78,57,100,91,98,94,100,80,100,70,72,91,67,100,100,86,88,87,81,"kinase still bound, per cent of control (CDK9 (human)): 83%; kinase still bound, per cent of control (HCK (human)): 92%; kinase still bound, per cent of control (MINK1 (human)): 95%; kinase still bound, per cent of control (PAK7 (human)): 100%; kinase still bound, per cent of control (RPS6KA3 KD1 (human)): 100%; kinase still bound, per cent of control (BMPR1B (human)): 84%; kinase still bound, per cent of control (PRKCQ (human)): 86%; kinase still bound, per cent of control (INSRR (human)): 100%; kinase still bound, per cent of control (PRKD3 (human)): 84%; kinase still bound, per cent of control (MAP2K2 (human)): 100%; kinase still bound, per cent of control (STK33 (human)): 86%; kinase still bound, per cent of control (PRKG2 (human)): 86%; kinase still bound, per cent of control (SRMS (human)): 84%; kinase still bound, per cent of control (EPHA3 (human)): 100%; kinase still bound, per cent of control (BRSK2 (human)): 100%; kinase still bound, per cent of control (MAP4K4 (human)): 66%; kinase still bound, per cent of control (PRKX (human)): 100%; kinase still bound, per cent of control (MAP4K5 (human)): 65%; kinase still bound, per cent of control [1]: 98%; kinase still bound, per cent of control (MAPK9 (human)): 4.8%"
